Test results reported in paper PMC11110755, “Structure-based virtual screening of unbiased and RNA-focused libraries to identify new ligands for the HCV IRES model system” (RSC Medicinal Chemistry, 2024).
“Also recorded” adds a separate entry of the source. Like-named read-outs stand apart in the source and are kept apart here.

How the values were obtained:
HCV IRES subdomain IIa [1] = test system: HCV IRES subdomain IIa; set-up: method as in PMID 16279767, PMID 24930829, PMID 27775338; details: previously reported, Fig. 1; read-out: EC50 (FRET assay); cited from earlier work
HCV IRES = test system: HCV IRES; set-up: method as in PMID 15380215; details: previously reported, Fig. 1; read-out: IC50 (Luciferase reporter gene assay); cited from earlier work
HCV IRES subdomain IIa [2] = test: FRET assay monitoring ligand-induced conformational change of Cy3/Cy5-labelled HCV IRES subdomain IIa; format: biochemical, hepatitis C virus; details: for FRET-signal change / conformational change of HCV IRES subdomain IIa, in words: pre-screening 1000, 100, 10 and 0.001 μM; for EC50: 100 nM Cy3/Cy5-labelled RNA, 10 mM HEPES pH 7.0, 2 mM MgCl2, 2% DMSO, ≥ = lower limit
Method: For the FRET assay, a two stranded HCV IRES subdomain IIa carrying a 5′-Cy3-label on one and 5′-Cy5-label on the other strand (Cy3-[…], Cy5-[…], Biomers.net GmbH) was used as described previously.[22,53] All samples containing labelled RNA were treated under light protection. FRET experiments were performed on a Tecan Spark 10 M plate reader (excitation/emission: 480/670 nm) using black half area 96 well microplates (Greiner Bio-One), based on a protocol by Zhou et al.[53] The 5′-Cy3- and 5′-Cy5-labelled single strands were annealed by heating to 75 °C in FRET buffer (10 mM HEPES pH 7.0, 2 mM MgCl2) and cooled down to room temperature for at least 20 min. The 5′-Cy3/Cy5-labelled RNA was diluted to 100 nM in FRET buffer and supplemented with compounds 8–28 in appropriate concentrations. Compounds 4 and 5 were used as positive controls. For the initial screening, compounds were added in final concentrations of 1000, 100, 10 and 0.001 μM (Fig. S4 ^†). If a concentration dependent reduction of the FRET signal (Cy5-emission) was observed, EC50-values were determined using ligand concentrations from 1 mM to 100 nM in 3.16-fold (semi-logarithmic) dilution series. For those compounds, the Cy3 emission was measured at 535 nm to confirm a conformational change dependent reduction in the Cy5 emission signal via Cy3 emission increase (Fig. S7 ^†). For each experiment, one DMSO negative control was carried out. The final DMSO concentration was always 2%. Excitation and emission spectra were recorded for the Cy3/Cy5-labelled RNA (100 nM) in FRET buffer to confirm excitation (Cy3) and emission (Cy5) wavelength as well as for each compound (1 μM) in FRET buffer to exclude any interference with the cyanine dyes. All measurements were performed at least as triplicates for screening and EC50-determination.
(§1) FRET experiments were analyzed using GraphPad Prism (version 8.0.1., GraphPad Software, Boston, Massachusetts USA, https://www.graphpad.com).

HCV IRES subdomain IIa [3] = format: binding, hepatitis C virus; details: for Kd: read-out: MST KD
Method: For the MST assay, the same sequence of the two stranded HCV IRES subdomain IIa as for the FRET assay was used. One strand was 5′-Cy5-labelled and the other strand was unmodified ([…], Cy5-[…], Biomers.net GmbH). All samples containing labelled RNA were treated under light protection. MST experiments were performed on a Monolith NT.115 from NanoTemper Technologies using standard uncoated capillaries. The strands were annealed by heating to 75 °C in MST buffer (10 mM HEPES pH 7.0, 2 mM MgCl2) and cooled down to room temperature for at least 20 min. The 5′-Cy5-labelled HCV IRES domain IIa RNA was diluted to 30 nM in MST buffer and supplemented with compounds 8–25 in appropriate concentrations. Compounds 4 and 5 were used as positive controls. For the initial screening, compounds were added to final concentrations of 1000 (or 316 if limited by solubility), 100, 10 and 0.001 μM (Fig. S5 ^†). If a concentration-dependent shift of thermophoresis was observed, KD-values were determined using concentrations ranging from 1 mM (if permitted by solubility, otherwise starting from 316 or 100 μM) to 0.01 μM in a 3.16-fold (semi-logarithmic) dilution series. For each experiment, one DMSO negative control was carried out. Final DMSO concentration was always 2%.
(§2) Off-target counter screens by MST were performed as described previously.[31,84] Briefly, the 5′-Cy5-labelled Tte preQ1-Riboswitch aptamer domain (Biomers.net GmbH) was heated to 75 °C for 5 min, cooled down to room temperature for at least 20 min and then diluted to 20 nM in MST buffer (50 mM Tris-HCl pH 7.5, 100 mM KCl, 25 mM MgCl2) and supplemented with compounds 4, 5, 8–13, 18, 21, 22 and 26 to final concentrations of 1000, 100, 10 and 0.001 μM. PreQ1 was used as a positive control. The 5′-Cy5-labelled B. angulatum SAM VI-Riboswitch aptamer domain (Eurofins Genomics GmbH) was heated to 75 °C for 5 min, cooled down to room temperature for at least 20 min and then diluted to 20 nM in MST buffer (50 mM Tris-HCl pH 7.5, 100 mM KCl, 25 mM MgCl2) and supplemented with compounds 5, 9 and 28 to final concentrations of 1000, 100, 10 and 0.001 μM. SAM was used as a positive control. For each experiment, one DMSO negative control was carried out. The final DMSO concentration was 2%. All measurements were performed at least as duplicates for pre-screening and triplicates for KD-determination. MST measurements were analyzed from signals after 18 s laser on-time using the MO.Affinity Analysis software (version 2.3) and exported for statistical analysis and plotting in GraphPad Prism (version 8.0.1., GraphPad Software, Boston, Massachusetts USA, https://www.graphpad.com).

[4] = target: SAM VI-Riboswitch aptamer domain; test: MST off-target counter screen, SAM VI-riboswitch aptamer domain; format: binding, B. angulatum; details: for SAM-VI-riboswitch binding (MST-shift), in words: 1000, 100, 10 and 0.001 μM
Method: as §2

[5] = target: Tte preQ1-Riboswitch aptamer domain; test: MST off-target counter screen, preQ1-riboswitch aptamer domain; format: binding, Thermoanaerobacter tengcongensis; details: for preQ1-riboswitch binding / selectivity (MST-shift), in words: 1000, 100, 10 and 0.001 μM
Method: as §2

[6] = test system: HCV IRES subdomain IIa in presence of total RNA from yeast; test: Selectivity FRET assay in presence of competing total RNA from yeast; format: biochemical, hepatitis C virus; details: 1:5 m/m HCV IRES : total RNA from yeast
Method: For the HCV IRES-binding compounds (4, 5, 8–13, 8a–8c), a selectivity FRET assay in presence of total RNA from yeast (Roche) was performed. The ratio of the FRET HCV IRES subdomain IIa construct and the total RNA was set to 1 : 5 m/m. The preparation of the labelled RNA and the compounds was the same as in the binding assay. The yeast RNA was diluted to 7.88 mg L^−1 and supplemented with 100 nM HCV IRES and appropriate concentrations of the compounds (3.16-fold dilution series) in FRET buffer (Fig. S10 ^†). For each compound, triplicate measurements were performed. For each experiment, one DMSO negative control was carried out. The final DMSO concentration was always 2%.
as §1

HCV IRES subdomain IIa [7] = target: HCV IRES subdomain IIa; set-up: method as in PMID 16279767; details: previously reported; read-out: KD (MS assay); cited from earlier work
cellular replicon = test system: cellular replicon; set-up: method as in PMID 16279767; details: cited from earlier work
[8] = 30 nM Cy5-labelled RNA, 10 mM HEPES pH 7.0, 2 mM MgCl2, 2% DMSO, ≥ = no saturation, n.b. no binding observed

**Q.** For `NC1=Nc2ccccc2C2(CC2)N1` [Compound 7], which EC50 (HCV IRES subdomain IIa [1]) is on record?
**A.** 100 µM

**Q.** Which IC50 (HCV IRES) does the source give for `Cc1nc(/N=C(\N)NCCc2ccccc2)nc(C)c1OCCCN(C)C` [Compound 2] here?
**A.** 2.1 µM

**Q.** Which results are given for `CN(C)C(=O)COC(=O)Cc1ccc(OC(=O)c2ccc(NC(=N)N)cc2)cc1` [Compound 27, Camostat, reference compound]?
**A.** FRET-signal change / conformational change of HCV IRES subdomain IIa, in words (HCV IRES subdomain IIa [2]): no binding; binding to HCV IRES subdomain IIa (MST-shift), in words (HCV IRES subdomain IIa [3]; pre-screening 1000 (or 316), 100, 10 and 0.001 μM): no binding

**Q.** Which “FRET-signal change / conformational change of HCV IRES subdomain IIa, in words” value (HCV IRES subdomain IIa [2]) does the source give for `NC1=Nc2nc3ccccc3n2C(C2CC2)N1` (stereo not shown) [Compound 18] here?
**A.** no large changes in FRET-signals; also recorded: no changes in the FRET-assay

**Q.** With `C[S+](CC[C@H](N)C(=O)[O-])C[C@H]1O[C@@H](n2cnc3c(N)ncnc32)[C@H](O)[C@@H]1O` (stereo partly shown) [SAM, reference compound] as the compound, how does the Kd ([4]; positive control, read-out: KD of positive control binding to SAM-VI-riboswitch (MST)) read?
**A.** 0.772 µM

**Q.** For `COc1ccc2c(C)nc(NC(=N)N)nc2c1` [Compound 8c], which EC50 (HCV IRES subdomain IIa [2]) is on record?
**A.** 120 ± 24 µM

**Q.** And the Kd (HCV IRES subdomain IIa [3]; [8])?
**A.** 134 ± 43 µM

**Q.** For `CC(C)NCC(O)COc1ccc2[nH]cc(CCN)c2c1` (stereo not shown) [Compound 11], which EC50 (HCV IRES subdomain IIa [2]) is on record?
**A.** ≥ 500 µM

**Q.** And the Kd (HCV IRES subdomain IIa [3]; [8])?
**A.** ≥ 100 µM

**Q.** For `CN(C)CCCNc1ccc2nc(N)oc2c1` [Compound 6], which EC50 (HCV IRES subdomain IIa [1]) is on record?
**A.** 25 µM

**Q.** For `Nc1nc(N2CCN(Cc3c(Cl)ccc(O)c3Cl)CC2)cc(=O)[nH]1` [Compound 9], which EC50 (HCV IRES subdomain IIa [2]) is on record?
**A.** 217 ± 41 µM

**Q.** What about the “FRET-signal change / conformational change of HCV IRES subdomain IIa, in words” value (HCV IRES subdomain IIa [2]) of the same compound?
**A.** signals in the FRET assay

**Q.** And the “MST KD” value (HCV IRES subdomain IIa [3]; [8])?
**A.** n.b.

**Q.** What about the Kd ([5]; 20 nM Cy5-labelled aptamer, read-out: KD preQ1 riboswitch (MST)) of the same compound?
**A.** 7.8 µM

**Q.** What about the “preQ1-riboswitch binding / selectivity (MST-shift), in words” value [5] of the same compound?
**A.** Weak preQ1-riboswitch binding; also recorded: binding to the preQ1-riboswitch at very high concentrations

**Q.** And the “SAM-VI-riboswitch binding (MST-shift), in words” value [4]?
**A.** no MST shift; also recorded: no binding; also recorded: no general RNA-promiscuity

**Q.** What about the “FRET result in presence of competing total RNA, in words” value [6] of the same compound?
**A.** lower EC50-values; also recorded: reduced

**Q.** Which Kd ([5]; positive control, read-out: KD of positive control binding to preQ1-riboswitch (MST)) does the source give for `NCc1c[nH]c2nc(N)[nH]c(=O)c12` [preQ1] here?
**A.** 0.012 µM

**Q.** Which EC50 (HCV IRES subdomain IIa [2]) does the source give for `CN(C)CCCn1c(N)nc2ccc3c(c21)CC(CN(C)C)CO3` (stereo not shown) [Compound 5] here?
**A.** 4.9 ± 2.6 µM

**Q.** What about the Kd (HCV IRES subdomain IIa [3]; [8]) of the same compound?
**A.** 5.2 ± 0.8 µM

**Q.** And the “preQ1-riboswitch binding / selectivity (MST-shift), in words” value [5]?
**A.** Weak preQ1-riboswitch binding; also recorded: binding to the preQ1-riboswitch at very high concentrations

**Q.** And the “SAM-VI-riboswitch binding (MST-shift), in words” value [4]?
**A.** no binding; also recorded: no MST shift

**Q.** What about the Kd (HCV IRES subdomain IIa [7]) of the same compound?
**A.** 0.86 µM

**Q.** What about the EC50 (HCV IRES subdomain IIa [1]) of the same compound?
**A.** 3.4 µM

**Q.** What about the “antiviral activity in cellular replicon assay, in words” value (cellular replicon) of the same compound?
**A.** antiviral activity

**Q.** What about the “toxicity in cellular replicon assay, in words” value (cellular replicon) of the same compound?
**A.** minimal toxicity

**Q.** Which “FRET-signal change / conformational change of HCV IRES subdomain IIa, in words” value (HCV IRES subdomain IIa [2]) does the source give for `COc1cccc(C2NC(N)=Nc3nc4ccccc4n32)c1` (stereo not shown) [Compound 21] here?
**A.** no large changes in FRET-signals; also recorded: no changes in the FRET-assay
